Assays:
[1] = tested on: other steroid receptors; conditions: no test described; cited from earlier work
[2] = tested on: R6/2 mouse model; experiment: Hindlimb clasping test in R6/2 mice; format: in vivo; conditions: 30 mg/kg s.c. daily for 5 weeks
Experimental: (§1) HD and wild-type (WT) R6/2 mice were purchased from JAX (The Jackson Laboratory, ME, USA) and arrived in the animal facility at 4-weeks of age. The mice were housed under normal conditions (room temperature, 12 hours light/dark cycle) with food and water ab libitum. The mice were housed 3-4 per cage, separated by sex, but different genotypes were housed together to improve the survival of the HD mice^11. Genotyping on tail samples that were collected post-mortem was performed by Laragen (CA, USA) to confirm that all HD mice had between 120-130 CAG repeats.
Animal studies: experimental procedures From 6 weeks of age onwards, mice received a daily subcutaneous (s.c.) injection either with 30 mg/kg of CORT113176 or vehicle (Veh; 10% ethanol and castor oil in experiment 1 or sesame oil in experiment 2) for five consecutive weeks. In experiment 1, male and female mice were assigned into one of the following groups: 1) WT+Veh (n=5 per sex), 2) WT+CORT113176 (n=5), 3) HD+Veh (n=5) or 4) HD+CORT113176 (n=5). In the final analysis there was an unequal group distribution for the male mice due to a mislabeled genotype and a mouse reaching an earlier endpoint resulting in n=6 in the WT+Veh group and n=3 in the HD+Veh group. In experiment 2, male mice were assigned into the following groups: 1) WT+Veh (n=10), 2) HD+Veh (n=10, ultimately n=8 due to a non-responder that met outlier criteria and a mouse reaching an earlier timepoint) and 3) HD+CORT113176 (n=10). Bodyweight was measured weekly and motor tests were performed at 1 PM to monitor the disease progression (as described below). On day 19 and day 34, blood samples were taken in the morning to evaluate corticosterone levels. On day 34, the animals were sacrificed using CO2 inhalation, blood was collected via cardiac puncture and the animals were perfused with cold PBS. Afterwards, several tissues were harvested and snap-frozen for further analysis. Brains were collected and stored for 24 hours at 4% PFA for IHC (further described below). […]

[3] = tested on: Iba1; experiment: Iba1 immunohistochemistry (microglia marker) in hippocampus of R6/2 mice; format: in vivo, mouse; conditions: experiment 1, male HD R6/2 mice, 30 mg/kg s.c. daily for 5 weeks
Experimental: (§2) Animal studies: experimental procedures From 6 weeks of age onwards, mice received a daily subcutaneous (s.c.) injection either with 30 mg/kg of CORT113176 or vehicle (Veh; 10% ethanol and castor oil in experiment 1 or sesame oil in experiment 2) for five consecutive weeks. In experiment 1, male and female mice were assigned into one of the following groups: 1) WT+Veh (n=5 per sex), 2) WT+CORT113176 (n=5), 3) HD+Veh (n=5) or 4) HD+CORT113176 (n=5). In the final analysis there was an unequal group distribution for the male mice due to a mislabeled genotype and a mouse reaching an earlier endpoint resulting in n=6 in the WT+Veh group and n=3 in the HD+Veh group. […] Bodyweight was measured weekly and motor tests were performed at 1 PM to monitor the disease progression (as described below). […] The slides of DARP32, GFAP and Iba1 were scanned with the Axio Slide Scanner (Zeiss, Axio Slide Scan.Z1) and the mHtt slides were analyzed using the confocal microscope (Leica, White Light Laser Confocal Microscope TCS SP8 X). All obtained images were analyzed using ImageJ (version 1.52p). DARP32, GFAP and Iba1 the mean intensity was measured in the striatum and hippocampus. The total number of aggregates in a specific region of interest (ROI), the total area in the ROI and the average size of the aggregates were measured.

[4] = tested on: R6/2 mouse model; experiment: Observed epileptic seizures in R6/2 mice (Racine scale); format: in vivo
Experimental: as §1
Animal studies: experimental procedures From 6 weeks of age onwards, mice received a daily subcutaneous (s.c.) injection either with 30 mg/kg of CORT113176 or vehicle (Veh; 10% ethanol and castor oil in experiment 1 or sesame oil in experiment 2) for five consecutive weeks. In experiment 1, male and female mice were assigned into one of the following groups: 1) WT+Veh (n=5 per sex), 2) WT+CORT113176 (n=5), 3) HD+Veh (n=5) or 4) HD+CORT113176 (n=5). In the final analysis there was an unequal group distribution for the male mice due to a mislabeled genotype and a mouse reaching an earlier endpoint resulting in n=6 in the WT+Veh group and n=3 in the HD+Veh group. In experiment 2, male mice were assigned into the following groups: 1) WT+Veh (n=10), 2) HD+Veh (n=10, ultimately n=8 due to a non-responder that met outlier criteria and a mouse reaching an earlier timepoint) and 3) HD+CORT113176 (n=10). Bodyweight was measured weekly and motor tests were performed at 1 PM to monitor the disease progression (as described below). On day 19 and day 34, blood samples were taken in the morning to evaluate corticosterone levels. On day 34, the animals were sacrificed using CO2 inhalation, blood was collected via cardiac puncture and the animals were perfused with cold PBS. Afterwards, several tissues were harvested and snap-frozen for further analysis. Brains were collected and stored for 24 hours at 4% PFA for IHC (further described below).
These seizures were not anticipated, but every case was documented throughout the experiment and scored using the Racine scale^15.

[5] = tested on: GFAP; experiment: GFAP immunohistochemistry (astrocyte marker) in striatum and hippocampus of R6/2 mice; format: in vivo, mouse; conditions: experiment 1, male HD R6/2 mice, 30 mg/kg s.c. daily for 5 weeks
Experimental: as §2

[6] = tested on: R6/2 mouse model; experiment: Gait abnormalities in R6/2 mice; format: in vivo; conditions: male R6/2 mice
[7] = tested on: R6/2 mouse model; experiment: Forelimb grip strength in R6/2 mice; format: in vivo; conditions: 30 mg/kg s.c. daily for 5 weeks
Experimental: as §1
Animal studies: experimental procedures From 6 weeks of age onwards, mice received a daily subcutaneous (s.c.) injection either with 30 mg/kg of CORT113176 or vehicle (Veh; 10% ethanol and castor oil in experiment 1 or sesame oil in experiment 2) for five consecutive weeks. In experiment 1, male and female mice were assigned into one of the following groups: 1) WT+Veh (n=5 per sex), 2) WT+CORT113176 (n=5), 3) HD+Veh (n=5) or 4) HD+CORT113176 (n=5). […] Bodyweight was measured weekly and motor tests were performed at 1 PM to monitor the disease progression (as described below). […]
Grip strength: Grip strength measurements were performed weekly to quantify muscle strength. […] The mouse was then gently pulled away until grip was lost, and the force that was required to do this was monitored. […]

[8] = tested on: mHtt aggregates; experiment: mHtt aggregate immunohistochemistry in striatum and hippocampal CA1 of R6/2 mice; format: in vivo, mouse; conditions: experiment 2, male HD R6/2 mice, vs vehicle-treated HD mice
Experimental: Animal studies: experimental procedures From 6 weeks of age onwards, mice received a daily subcutaneous (s.c.) injection either with 30 mg/kg of CORT113176 or vehicle (Veh; 10% ethanol and castor oil in experiment 1 or sesame oil in experiment 2) for five consecutive weeks. In experiment 1, male and female mice were assigned into one of the following groups: 1) WT+Veh (n=5 per sex), 2) WT+CORT113176 (n=5), 3) HD+Veh (n=5) or 4) HD+CORT113176 (n=5). In the final analysis there was an unequal group distribution for the male mice due to a mislabeled genotype and a mouse reaching an earlier endpoint resulting in n=6 in the WT+Veh group and n=3 in the HD+Veh group. In experiment 2, male mice were assigned into the following groups: 1) WT+Veh (n=10), 2) HD+Veh (n=10, ultimately n=8 due to a non-responder that met outlier criteria and a mouse reaching an earlier timepoint) and 3) HD+CORT113176 (n=10). Bodyweight was measured weekly and motor tests were performed at 1 PM to monitor the disease progression (as described below). On day 19 and day 34, blood samples were taken in the morning to evaluate corticosterone levels. On day 34, the animals were sacrificed using CO2 inhalation, blood was collected via cardiac puncture and the animals were perfused with cold PBS. Afterwards, several tissues were harvested and snap-frozen for further analysis. Brains were collected and stored for 24 hours at 4% PFA for IHC (further described below). Immunohistochemistry Brains were isolated and the left hemisphere was fixated in 4% PFA (Sigma-Aldrich, 8187085000) for 24 hours. Afterwards the brains were transferred to a 30% sucrose solution for 24-48 hours and stored at −80° C. until further processing. Cryosections of 10 μM were collected (CryoStar NX70) on slides (Avantor, VWR® Microscope Slides, 631-1166) and stored at −20° C. until staining. The slides were incubated for 25 minutes with 0.1% Triton X-100 (Sigma-Aldrich), washed with 0.1% PBS/Tween (Tween®20, Sigma-Aldrich). The background signal was blocked with 5% PBSA for 30 minutes before the incubation with the primary antibody DARP32, (1:500, abcam, EP720Y, ab40801), GFAP (1:500, Agilent DAKO, Z0334), Iba1, (1:500, Fujifilm Wako, 019-19741) or mHtt, 1:500 (1:500, abcam, EPR5526, ab209668) overnight at 4° C. The following day slides were washed with 0.1% PBS/Tween before incubation with the secondary antibody goat anti-rabbit Alexa Fluor 488 (1:250, Invitrogen, A-110088) for 30 minutes. After a final wash with 0.1% PBS/Tween, ProLong gold with DAPI (Invitrogen, P36931) was added with a coverslip (Thermo-Fisher, Menzel-Glaser, 0980) and the slides were dried at room temperature. The slides of DARP32, GFAP and Iba1 were scanned with the Axio Slide Scanner (Zeiss, Axio Slide Scan.Z1) and the mHtt slides were analyzed using the confocal microscope (Leica, White Light Laser Confocal Microscope TCS SP8 X). All obtained images were analyzed using ImageJ (version 1.52p). DARP32, GFAP and Iba1 the mean intensity was measured in the striatum and hippocampus. The total number of aggregates in a specific region of interest (ROI), the total area in the ROI and the average size of the aggregates were measured.

[9] = experiment 1, male HD R6/2 mice, vs vehicle-treated HD mice
[10] = experiment 2 (larger cohort), male HD R6/2 mice, vs vehicle

CC(C)n1ncc(S(=O)(=O)N2CC[C@H]3Cc4c(cnn4-c4ccc(F)cc4)C[C@]3(C(=O)c3cscn3)C2)n1 [zavacorilant, ((4aR,8aS)-1-(4-fluorophenyl)-6-((2-isopropyl-2H-1,2,3-triazol-4-yl)sulfonyl)-4,4a,5,6,7,8,8a,9-octahydro-1H-pyrazolo[3,4-g]isoquinolin-4a-yl)(thiazol-4-yl)methanone]
Cross-reactivity with other steroid receptors (selectivity for GR) [1]: lacks significant cross-reactivity with other steroid receptors

O=C(c1ccccn1)[C@]12Cc3cnn(-c4ccc(F)cc4)c3C=C1CCN(S(=O)(=O)c1ccc(C(F)(F)F)cc1)C2 [CORT113176]
Hindlimb clasping score ([2]; experiment 1, female HD R6/2 mice): at later timepoints the treatment did attenuate the clasping score
Hindlimb clasping score [2, 9]: reduced clasping score
Clasping score [2, 10]: reduced clasping score
Iba1 intensity in hippocampus [3]: tended to be higher
Total number of epileptic seizures ([4]; experiment 1, female HD R6/2 mice, 30 mg/kg s.c. daily for 5 weeks): none were observed
Total number of epileptic seizures ([4]; experiment 1, male HD R6/2 mice, 30 mg/kg s.c. daily for 5 weeks, vs vehicle-treated HD mice): occurred slightly more frequently in the vehicle-treated HD mice
Time of occurrence of epileptic seizures ([4]; experiment 1, treated HD R6/2 mice, 5-week study): occurred mostly near the end of the five weeks (day 32)
Number of epileptic seizures ([4]; experiment 2 (larger cohort), male HD R6/2 mice, 30 mg/kg s.c. daily for 5 weeks): Only one epileptic seizure was observed
Cross-reactivity with other steroid receptors (selectivity for GR) [1]: lacks significant cross-reactivity with other steroid receptors
GFAP immunoreactivity in striatum [5]: normalized GFAP levels in male
GFAP staining intensity in hippocampus [5]: tended to normalize this HD effect
Gait abnormalities [6]: significantly delayed
Forelimb grip strength over time [7, 9]: attenuated this decrease of muscle function
Grip strength [7, 10]: improved grip strength
Number of mHtt aggregates in striatum [8]: significantly decreased this number of mHtt aggregates
Total mHtt aggregate area in CA1 region of hippocampus [8]: smaller total aggregate area
Total number of mHtt aggregates in CA1 region of hippocampus [8]: significantly fewer aggregates
mHtt aggregate size in CA1 region of hippocampus [8]: smaller aggregates
mHtt aggregate size in striatum [8]: of a similar size in vehicle- and CORT113176-treated HD groups

CC#C[C@]1(O)CC[C@H]2[C@@H]3CCC4=CC(=O)CCC4=C3[C@@H](c3ccc(N(C)C)cc3)C[C@@]21C [mifepristone, reference compound]
Cross-reactivity with other steroid receptors (selectivity for GR) [1]: is not specific for GR

Reference: patent publication US20250360125A1, “METHODS AND COMPOSITIONS FOR TREATING HUNTINGTON'S DISEASE AND ITS SYMPTOMS” (Corcept Therapeutics Incorporated, priority 2023, published 2025)
